Where two headings read alike, the source gives them in different places. Where a SMILES comes first, the peptide text is derived from it.
Assays:
HLA-A03.01 [1] = target: T1, HLA-A03.01 (Homo sapiens, UniProt P04439); assay: Class I MHC peptide binding affinity (displacement of radiolabeled reference peptide)
HLA-A01.01 [2] = target: HLA-A01.01 (Homo sapiens, UniProt P04439, A114D/A174V/A182V/D101N/D185E/E176A/E190D/L180R/Q94H/R68K/S129P/T187R/V100A/V91M/W191G); assay: as above
Outline: (§1)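 Displacement format in which varying amounts of peptide compete for 2 days with a radiolabeled reference ligand prebound to class I MHC, residual complex-associated label being measured after gel-filtration separation.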

HLA-A03.01 [3] = target: T1, HLA-A03.01; assay: Class I MHC peptide binding stability (pMHC-I dissociation, 125I-labeled light chain); parameters: made in house; host or cells: E. coli; conditions: for Stability (half-life (hr.)): BTK C481S peptide; for Stability (half-life (hr.)) / Measured stability: HLA Allele A03.01; for Measured stability: time for half of the complexes to dissociate at 37° C.; for Stability (T1/2 (h)): allele A03.01
HLA-A01.01 [4] = target: T2, HLA-A01.01 (Homo sapiens, UniProt P04439, A114D/A174V/A182V/D101N/E190D/Q94H/R68K/S129P/V100A/V91M/W191G); assay: as above
T2 construct: made in house; host or cells: E. coli

HLA-A11.01 [5] = target: HLA-A11.01 (Homo sapiens, UniProt P04439, A114D/D185E/E176A/F33Y/L180Q/S129P/T187R); assay: Class I MHC peptide binding affinity (displacement of radiolabeled reference peptide)
HLA-A11.01 [6] = target: T3, HLA-A11.01 (Homo sapiens, UniProt P04439, A114D/F33Y/S129P); assay: Class I MHC peptide binding stability (pMHC-I dissociation, 125I-labeled light chain); conditions: HLA Allele A11.01; time for half of the complexes to dissociate at 37° C.
T3 construct: made in house; host or cells: E. coli

HLA-A02.01 [7] = target: HLA-A02.01 (Homo sapiens, UniProt P04439, D140Y/D185E/D98H/E176V/E277Q/G131W/G231S/I119V/I121R/I166T/I218V/L300P/L318F/N151K/N90K/P208A/P217A/Q86G/Q94H/R138H/R169H/T345S); assay: Class I MHC peptide binding affinity (displacement of radiolabeled reference peptide); conditions: allele A02.01, (nM))
Outline: as §1

HLA-A02.01 [8] = target: T4, HLA-A02.01 (Homo sapiens, UniProt P04439, D140Y/D185E/D98H/E176V/E277Q/G131W/G231S/I119V/I121R/I166T/I218V/N151K/N90K/P208A/P217A/Q86G/Q94H/R138H/R169H); assay: Class I MHC peptide binding stability (pMHC-I dissociation, 125I-labeled light chain); conditions: allele A02.01
T4 construct: made in house; host or cells: E. coli

HLA-B08.01 [9] = target: T5, HLA-B08.01 (Homo sapiens, UniProt P01889, A93T/A95T/D138N/E176V/E187T/K202T/Q94N/R180D/S35A/V36M/Y33D/Y91F); assay: as above; conditions: Allele B08.01
HLA-B08.01 [10] = target: T5, HLA-B08.01; assay: Class I MHC peptide binding affinity (displacement of radiolabeled reference peptide)
Outline: as §1

HLA-B07.02 [11] = target: T6, HLA-B07.02 (Homo sapiens, UniProt P01889); assay: as above
[12] = target: 293T cells transduced with GATA3 neoORF, expressing the HLA of interest (Homo sapiens, UniProt P01889); assay: Presentation of GATA3 neoantigens: HLA-eluted peptides by targeted MS/MS (PRM) (Table 14); format: cell-based; conditions: GATA3 neoORF transduced 293T cells expressing HLA-B*07:02 protein
Method: To assess whether antigens could be processed and presented from the larger polypeptide context, peptides eluted from HLA molecules isolated from cells expressing the genes of interest were analyzed by tandem mass spectrometry (MS/MS).
Between 50 and 700 million of the transduced cells expressing peptides encoded by the GATA3 neoORF sequence were cultured and peptides were eluted from HLA-peptide complexes using an acid wash. Eluted peptides were then analyzed by targeted MS/MS using PRM. Spectral comparison between peptides derived from GATA3 neoORF and corresponding synthetic peptides were performed to confirm each detection.

HLA-B07.02 [13] = target: T6, HLA-B07.02; assay: Class I MHC peptide binding stability (pMHC-I dissociation, 125I-labeled light chain); parameters: made in house; host or cells: E. coli; conditions: Allele B07.02
[14] = Observed Affinity (IC50, (nM)), allele A01.01
[15] = BTK C481S peptide, HLA Allele A01.01
[16] = read-out: Observed Affinity (IC50
[17] = allele A03.01, read-out: Observed Affinity (IC50, (nM))
[18] = Allele B07.02, read-out: Observed Affinity (IC50, (nM))

SMILES: CSCC[C@H](N)C(=O)N[C@@H](C)C(=O)N[C@@H](CC(N)=O)C(=O)NCC(=O)N[C@@H](CO)C(=O)N[C@@H](CC(C)C)C(=O)N[C@@H](CC(C)C)C(=O)N[C@@H](CC(N)=O)C(=O)N[C@@H](Cc1ccc(O)cc1)C(=O)O
- IC50 (HLA-A03.01 [1]; Affinity (nM), BTK C481S peptide, HLA Allele A03.01): 35.6 nM
- IC50 (HLA-A03.01 [1]; Observed Affinity (IC50, (nM)), allele A03.01): 35.6 nM
- IC50 (HLA-A01.01 [2]; Affinity (nM), BTK C481S peptide, HLA Allele A01.01): 439 nM
- IC50 (HLA-A01.01 [2]; [14]): 439 nM
- Stability (half-life (hr.)) (HLA-A03.01 [3]): 14.3 min
- Stability (half-life (hr.)) (HLA-A01.01 [4]; [15]): 12.98 min
- IC50 (HLA-A11.01 [5]): 536 nM

SMILES: CC(C)[C@H](N)C(=O)N[C@H](C(=O)N[C@H](C(=O)NCC(=O)N[C@@H](C)C(=O)N[C@@H](CC(=O)O)C(=O)NCC(=O)N[C@H](C(=O)NCC(=O)N[C@@H](CCCCN)C(=O)O)C(C)C)C(C)C)C(C)C
- Measured stability (HLA-A03.01 [3]): 2.3 h
- Measured stability (HLA-A11.01 [6]): 13.0 h

SMILES: CSCC[C@H](NC(=O)[C@@H](NC(=O)[C@H](Cc1ccc(O)cc1)NC(=O)[C@H](C)NC(=O)[C@H](CCSC)NC(=O)[C@@H](NC(=O)[C@@H](N)Cc1ccc(O)cc1)C(C)C)C(C)C)C(=O)N[C@@H](C)C(=O)NCC(=O)O
- IC50 (HLA-A02.01 [7]; [16]): 11500 nM
- Stability (T1/2 (h)) (HLA-A02.01 [8]): 2.5 h
- Stability (T1/2 (h)) (HLA-B08.01 [9]): 1.2 h

SMILES: CC(C)[C@H](NC(=O)[C@@H](N)CCCCN)C(=O)N[C@@H](CO)C(=O)N[C@@H](CCCNC(=N)N)C(=O)N[C@@H](CCC(=O)O)C(=O)N[C@@H](CC(N)=O)C(=O)N[C@H](C(=O)N[C@@H](CO)C(=O)N1CCC[C@H]1C(=O)N[C@@H](CCCCN)C(=O)O)[C@@H](C)O (H-KVSRENTSPK-OH; N-terminus and C-terminus assumed)
- IC50 (HLA-A03.01 [1]; [17]): 7 nM
- Stability (T1/2 (h)) (HLA-A03.01 [3]): 13.5 h

SMILES: CC[C@H](C)[C@H](NC(=O)[C@H](CCCCN)NC(=O)[C@H](CO)NC(=O)[C@H](CCC(=O)O)NC(=O)[C@H](C)NC(=O)[C@H](CCCCN)NC(=O)[C@H](CC(C)C)NC(=O)[C@H](Cc1ccccc1)NC(=O)[C@H](CCSC)NC(=O)[C@@H](N)Cc1ccc(O)cc1)C(=O)O
- Stability (T1/2 (h)) (HLA-A02.01 [8]): 0.6 h
- Stability (T1/2 (h)) (HLA-B08.01 [9]): 0.4 h

SMILES: CC[C@H](C)[C@H](NC(=O)[C@H](Cc1ccc(O)cc1)NC(=O)[C@H](CCCCN)NC(=O)CNC(=O)[C@H](CCCNC(=N)N)NC(=O)[C@H](CCCCN)NC(=O)[C@H](Cc1c[nH]cn1)NC(=O)[C@H](CC(C)C)NC(=O)[C@@H](N)Cc1c[nH]c2ccccc12)C(=O)O (H-WLHKRGKYI-OH; N-terminus and C-terminus assumed)
- IC50 (HLA-A02.01 [7]; Observed Affinity (IC50): 1250 nM
- IC50 (HLA-B08.01 [10]): 417 nM
- Stability (T1/2 (h)) (HLA-A02.01 [8]): 1.2 h
- IC50 (HLA-B07.02 [11]): 2650 nM
- Stability (T1/2 (h)) (HLA-B08.01 [9]): 1.3 h

SMILES: CC[C@H](C)[C@H](NC(=O)[C@H](CC(C)C)NC(=O)[C@H](CCC(N)=O)NC(=O)[C@@H](NC(=O)[C@@H](NC(=O)[C@H](CO)NC(=O)[C@@H](NC(=O)[C@@H](N)CC(C)C)[C@@H](C)O)[C@@H](C)O)C(C)C)C(=O)N[C@@H](CCSC)C(=O)O (H-LTSTVQLIM-OH; N-terminus and C-terminus assumed)
- Kd (HLA-A01.01 [2]): 2890 nM
- IC50 (HLA-A01.01 [2]; [14]): 2890 nM
- Stability (half-life (hr.)) (HLA-A01.01 [4]; EGFR T790M peptides, HLA allele A01.01): 6.222 min

SMILES: CC(C)[C@H](N)C(=O)N[C@H](C(=O)NCC(=O)N[C@@H](C)C(=O)N[C@@H](CS)C(=O)NCC(=O)N[C@H](C(=O)NCC(=O)N[C@@H](CCCCN)C(=O)O)C(C)C)C(C)C
- Measured stability (HLA-A03.01 [3]): 5.0 h
- Measured stability (HLA-A11.01 [6]): 10.0 h

SMILES: CC(C)C[C@H](NC(=O)[C@H](Cc1ccccc1)NC(=O)[C@H](CO)NC(=O)[C@H](CC(C)C)NC(=O)[C@H](CS)NC(=O)[C@H](CO)NC(=O)[C@H](Cc1ccccc1)NC(=O)[C@H](CC(C)C)NC(=O)[C@@H](N)CCCCN)C(=O)O (H-KLFSCLSFL-OH; N-terminus and C-terminus assumed)
- IC50 (HLA-A03.01 [1]; [17]): 308 nM
- IC50 (HLA-A02.01 [7]; [16]): 6 nM
- Stability (T1/2 (h)) (HLA-A02.01 [8]): 14.3 h
- Stability (T1/2 (h)) (HLA-A03.01 [3]): 0.8 h

SMILES: CC(C)[C@H](N)C(=O)N[C@H](C(=O)NCC(=O)N[C@@H](C)C(=O)N[C@@H](CC(=O)O)C(=O)NCC(=O)N[C@H](C(=O)NCC(=O)N[C@@H](CCCCN)C(=O)O)C(C)C)C(C)C
- Measured stability (HLA-A11.01 [6]): 3.4 h

SMILES: CSCC[C@H](NC(=O)[C@H](Cc1ccc(O)cc1)NC(=O)CNC(=O)[C@H](CC(=O)O)NC(=O)[C@H](CCCNC(=N)N)NC(=O)[C@H](CCCCN)NC(=O)[C@@H]1CCCN1C(=O)[C@@H](N)CCCCN)C(=O)N[C@@H](Cc1ccccc1)C(=O)N[C@@H](CC(C)C)C(=O)O (H-KPKRDGYMFL-OH; N-terminus and C-terminus assumed)
- IC50 (HLA-B07.02 [11]; [18]): 98.1 nM
- detected by mass spectrometry (peptide eluted from HLA-peptide complexes) [12]: detected

SMILES: CSCC[C@H](NC(=O)[C@H](Cc1ccc(O)cc1)NC(=O)CNC(=O)[C@H](CC(=O)O)NC(=O)[C@H](CCCNC(=N)N)NC(=O)[C@H](CCCCN)NC(=O)[C@@H]1CCCN1C(=O)[C@@H](N)CCCCN)C(=O)N[C@@H](Cc1ccccc1)C(=O)O (H-KPKRDGYMF-OH; N-terminus and C-terminus assumed)
- IC50 (HLA-B07.02 [11]; [18]): 28.2 nM
- detected by mass spectrometry (peptide eluted from HLA-peptide complexes) [12]: detected

SMILES: CSCC[C@H](NC(=O)[C@H](Cc1c[nH]c2ccccc12)NC(=O)[C@H](Cc1c[nH]cn1)NC(=O)[C@H](CC(N)=O)NC(=O)[C@H](CCCNC(=N)N)NC(=O)[C@H](CCCNC(=N)N)NC(=O)[C@H](CCC(N)=O)NC(=O)[C@H](CO)NC(=O)[C@@H]1CCCN1C(=O)[C@@H](N)CC(C)C)C(=O)O
- Stability (T1/2 (h)) (HLA-B07.02 [13]): 6.5 h
- Stability (T1/2 (h)) (HLA-B08.01 [9]): 0.7 h

SMILES: CSCC[C@H](NC(=O)[C@@H](N)Cc1ccc(O)cc1)C(=O)N[C@@H](C)C(=O)N[C@@H](CC(N)=O)C(=O)NCC(=O)N[C@@H](CO)C(=O)N[C@@H](CC(C)C)C(=O)N[C@@H](CC(C)C)C(=O)N[C@@H](CC(N)=O)C(=O)N[C@@H](Cc1ccc(O)cc1)C(=O)O (H-YMANGSLLNY-OH; N-terminus and C-terminus assumed)
- IC50 (HLA-A03.01 [1]; BTK C481S peptide, HLA Allele A03.01, read-out: Affinity): 95.9 nM
- IC50 (HLA-A03.01 [1]; [17]): 95.9 nM
- IC50 (HLA-A01.01 [2]; BTK C481S peptide, HLA Allele A01.01, read-out: Affinity): 13.2 nM
- IC50 (HLA-A01.01 [2]; allele A01.01, read-out: Observed Affinity (IC50, (nM))): 13.2 nM
- Stability (half-life (hr.)) (HLA-A03.01 [3]): 16.75 min
- Stability (half-life (hr.)) (HLA-A01.01 [4]; [15]): 51.97 min
- IC50 (HLA-A11.01 [5]; BTK C481S peptide, HLA Allele A11.01, read-out: Affinity): 974 nM

SMILES: CC(C)C[C@H](NC(=O)[C@@H]1CCCN1C(=O)[C@H](CS)NC(=O)[C@H](CC(C)C)NC(=O)[C@H](Cc1c[nH]cn1)NC(=O)[C@H](CC(N)=O)NC(=O)CNC(=O)[C@H](CC(C)C)NC(=O)[C@@H](N)CO)C(=O)O
- Stability (T1/2 (h)) (HLA-A02.01 [8]): 3.5 h
- Stability (T1/2 (h)) (HLA-B08.01 [9]): 0.5 h
